Reference: PMC10703426, “New characterization of dihydroergotamine receptor pharmacology in the context of migraine: utilization of a β-arrestin recruitment assay” (Frontiers in Neurology, 2023)
“Also recorded” adds a separate entry of the source. Structures can show the parent of a compound that is named as a salt.

Legend:
[1] = tested on: 5-HT1A; details: IV DHE (53 ng/mL); cited from earlier work
[2] = tested on: 5-HT1D; set-up: method as in doi:10.1186/1129-2377-14-S1-P75; details: cited from earlier work
[3] = target: T1, CXCR7 (Homo sapiens, UniProt P25106); assay: gpcrMAX PathHunter β-arrestin recruitment, agonist mode; assay type: cell-based; set-up: ProLink enzyme-donor fragment of β-galactosidase (own knowledge of the PathHunter design)
Description: PathHunter cell lines were expanded from freezer stocks according to standard procedures and cells were seeded in a total volume of 20 μL into white-walled, 384-well microplates in duplicate and incubated at 37°C prior to testing. […] Intermediate dilution (1% vehicle concentration) of sample stocks was performed to generate a 5× sample in assay buffer, of which 5 μL was added to the cells and incubated for 90 or 180 min at 37°C or room temperature, depending on the specific receptor, as established by manufacturer optimization protocols (see Supplementary Table 1). For antagonist activity, cells were preincubated with an antagonist for 30 min, followed by an agonist challenge at 80% of the maximal effective concentration (EC80). Intermediate dilution of sample stocks was performed to generate 5× sample in assay buffer, of which 5 μL was added to cells and incubated at 37°C or room temperature for 30 min. […] Microplates were read with a PerkinElmer EnVision (Shelton, CT) instrument for chemiluminescent signal detection.
Measurement of agonist and antagonist activity in the assay was calculated as percent activity of relative luminescence units (from positive control). Significance of agonist/antagonist activity was determined based upon prespecified criteria provided by Eurofins DiscoverX. […]

[4] = tested on: human 5-HT1B; set-up: method as in doi:10.1186/1129-2377-14-S1-P75; details: cited from earlier work
[5] = target: T2, human 5-HT4E receptor (Homo sapiens, UniProt Q13639); assay: Radioligand competition binding, [3H]GR 113808, CHO cell membranes
T2 construct: host or cells: CHO
Description: Nonspecific binding was determined in the presence of 100 μM serotonin. Following incubation, the same protocol as described above for 5-HT3 binding was employed. The standard reference compound for 5-HT4E binding is serotonin.

[6] = target: T3, D2 (Homo sapiens, UniProt P14416); assay: Radioligand competition binding, [3H]7-OH-DPAT, HEK-293 cells
T3 construct: host or cells: HEK-293
Description: (§4) All assays were performed in duplicate (ie, 2 replicates per assay, per standard manufacturer protocol).

[7] = tested on: 5-HT1B; details: IV DHE (53 ng/mL); cited from earlier work
[8] = tested on: α-adrenergic1; details: IV DHE (53 ng/mL); cited from earlier work
[9] = target: T1, CXCR7; assay: Radioligand binding assay (as worded in the discussion); details: at concentrations <1.0 μM
[10] = tested on: 5-HT1D; details: IV DHE (53 ng/mL); cited from earlier work
[11] = tested on: 5-HT5A; details: IV DHE (53 ng/mL); cited from earlier work
[12] = target: T4, D5 (Homo sapiens, UniProt P21918); assay: Radioligand competition binding, [3H]SCH 23390, GH4 cells
T4 construct: ProLink enzyme-donor fragment of β-galactosidase (own knowledge of the PathHunter design)
Description: as §4

[13] = tested on: α-adrenergic2C; details: IV DHE (53 ng/mL); cited from earlier work
[14] = tested on: D3; details: IV DHE (53 ng/mL); cited from earlier work
[15] = target: T5, 5-HT5A (Homo sapiens, UniProt P47898); assay: gpcrMAX PathHunter β-arrestin recruitment, agonist mode; assay type: cell-based; details: 10 μM; >30% activity = agonist
T5 construct: ProLink enzyme-donor fragment of β-galactosidase (own knowledge of the PathHunter design)
Description: (§1) PathHunter cell lines were expanded from freezer stocks according to standard procedures and cells were seeded in a total volume of 20 μL into white-walled, 384-well microplates in duplicate and incubated at 37°C prior to testing. […] Intermediate dilution (1% vehicle concentration) of sample stocks was performed to generate a 5× sample in assay buffer, of which 5 μL was added to the cells and incubated for 90 or 180 min at 37°C or room temperature, depending on the specific receptor, as established by manufacturer optimization protocols (see Supplementary Table 1). For antagonist activity, cells were preincubated with an antagonist for 30 min, followed by an agonist challenge at 80% of the maximal effective concentration (EC80). Intermediate dilution of sample stocks was performed to generate 5× sample in assay buffer, of which 5 μL was added to cells and incubated at 37°C or room temperature for 30 min. This was followed by an addition of 5 μL of 6× EC80 agonist in assay buffer to the cells, which were incubated at 37°C or room temperature for 90 or 180 min. Assay signal for agonist and antagonist modes was generated through a single addition of 12.5 or 15 μL (50% v/v) of PathHunter Detection reagent cocktail, followed by a 1-h incubation at room temperature. Further experimental details can be found in the Supplementary File. Microplates were read with a PerkinElmer EnVision (Shelton, CT) instrument for chemiluminescent signal detection.
(§2) Measurement of agonist and antagonist activity in the assay was calculated as percent activity of relative luminescence units (from positive control). Significance of agonist/antagonist activity was determined based upon prespecified criteria provided by Eurofins DiscoverX. In brief, receptor activity >30% was considered a significant agonist effect. Receptor inhibition >50% was considered a significant inhibitory effect. Please refer to the Supplementary File for more detail.
(§3) Samples were added to cells and incubated for 90 or 180 minutes at 37 °C or room temperature, depending on the specific receptor, as noted, with specific incubation protocols outlined in Supplemental Table 1. For antagonist activity, preincubation temperatures were performed at the temperatures specified in Supplemental Table 1, per target. Incubation with 6× EC80 agonist was determined by the assay manufacturer and selected in order to provide a challenge that was low enough to be below the saturation point, so as to not bias the results, while still at a high enough challenge concentration to yield a robust signal-to-noise ratio. Further information is available from Eurofins Discovery Services upon request.

[16] = target: T6, D2S (Homo sapiens, UniProt P14416); assay: as above; assay type: cell-based; details: 10 μM; >30% activity = agonist
T6 construct: ProLink enzyme-donor fragment of β-galactosidase (own knowledge of the PathHunter design)
Description: as §1, §2, §3

[17] = target: T7, 5-HT1A (Homo sapiens, UniProt P08908); assay: as above; assay type: cell-based; details: 10 μM; >30% activity = agonist
T7 construct: ProLink enzyme-donor fragment of β-galactosidase (own knowledge of the PathHunter design)
Description: as §1, §2, §3

[18] = target: T8, 5-HT2C (Homo sapiens, UniProt P28335); assay: as above; assay type: cell-based; details: 10 μM; >30% activity = agonist
T8 construct: ProLink enzyme-donor fragment of β-galactosidase (own knowledge of the PathHunter design)
Description: as §1, §2, §3

[19] = target: T9, D2L (Homo sapiens, UniProt P14416); assay: as above; assay type: cell-based; details: 10 μM; >30% activity = agonist
T9 construct: ProLink enzyme-donor fragment of β-galactosidase (own knowledge of the PathHunter design)
Description: as §1, §2, §3

[20] = target: T4, D5; assay: as above; assay type: cell-based; details: 10 μM; >30% activity = agonist
Description: as §1, §2, §3

[21] = target: T10, 5-HT1B (Homo sapiens, UniProt P28222); assay: as above; assay type: cell-based; details: 10 μM; >30% activity = agonist
T10 construct: host or cells: Chem-1 cells
Description: as §1, §2, §3

[22] = target: T11, human 5-HT3 receptor (Homo sapiens, UniProt P46098); assay: Radioligand competition binding, [3H]GR-65630, HEK-293 cell membranes
T11 construct: host or cells: HEK-293
Description: Nonspecific binding was determined in the presence of 10 μM MDL 72222. Following incubation, the samples were filtered rapidly under vacuum through glass fiber filters (GF/B, Packard; Kennesaw, GA) presoaked with 0.3% polyethyleneimine and rinsed several times with ice-cold 50 mM Tris–HCl using a 96-sample cell harvester (UniFilter, Packard). The filters were dried and then counted for radioactivity in a scintillation counter (TopCount, Packard) using a scintillation cocktail (MicroScint 0, Packard). Results are expressed as percent inhibition of the control radioligand–specific binding. The standard reference compound was MDL 72222, which was tested in each experiment at several concentrations to obtain a competition curve from which its half-maximal inhibitory concentration (IC50) was calculated.

[23] = target: T10, 5-HT1B; assay: Radioligand competition binding, [3H]GR125743, Chem-1 cells
Description: as §4

[24] = tested on: D2S; details: IV DHE (53 ng/mL); cited from earlier work
[25] = tested on: 5-HT6; details: IV DHE (53 ng/mL); cited from earlier work

T11 sequence (P46098 24-478): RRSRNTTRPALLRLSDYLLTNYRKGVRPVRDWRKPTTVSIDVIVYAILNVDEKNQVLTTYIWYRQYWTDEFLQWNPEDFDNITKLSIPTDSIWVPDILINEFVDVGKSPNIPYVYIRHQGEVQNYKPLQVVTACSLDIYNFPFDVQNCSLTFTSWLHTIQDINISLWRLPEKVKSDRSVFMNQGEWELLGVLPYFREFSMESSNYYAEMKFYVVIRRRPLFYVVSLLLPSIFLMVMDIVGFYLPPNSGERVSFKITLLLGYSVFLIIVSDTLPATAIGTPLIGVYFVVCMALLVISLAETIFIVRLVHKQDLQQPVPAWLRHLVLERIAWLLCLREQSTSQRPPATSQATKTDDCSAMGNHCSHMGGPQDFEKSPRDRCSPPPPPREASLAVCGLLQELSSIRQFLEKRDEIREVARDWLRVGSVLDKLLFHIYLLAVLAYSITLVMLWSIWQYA
T1 sequence (P25106 whole entry, the tested form may be a part): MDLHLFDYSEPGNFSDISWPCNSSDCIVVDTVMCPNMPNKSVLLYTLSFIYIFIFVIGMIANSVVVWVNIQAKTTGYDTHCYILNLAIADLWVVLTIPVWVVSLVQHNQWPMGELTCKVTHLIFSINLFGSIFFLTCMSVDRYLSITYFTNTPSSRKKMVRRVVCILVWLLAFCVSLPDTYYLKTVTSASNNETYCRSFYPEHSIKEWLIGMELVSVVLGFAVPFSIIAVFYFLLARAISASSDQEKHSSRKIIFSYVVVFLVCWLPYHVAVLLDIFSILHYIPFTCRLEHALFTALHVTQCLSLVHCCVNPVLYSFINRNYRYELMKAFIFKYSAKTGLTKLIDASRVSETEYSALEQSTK
T10 sequence (P28222 whole entry): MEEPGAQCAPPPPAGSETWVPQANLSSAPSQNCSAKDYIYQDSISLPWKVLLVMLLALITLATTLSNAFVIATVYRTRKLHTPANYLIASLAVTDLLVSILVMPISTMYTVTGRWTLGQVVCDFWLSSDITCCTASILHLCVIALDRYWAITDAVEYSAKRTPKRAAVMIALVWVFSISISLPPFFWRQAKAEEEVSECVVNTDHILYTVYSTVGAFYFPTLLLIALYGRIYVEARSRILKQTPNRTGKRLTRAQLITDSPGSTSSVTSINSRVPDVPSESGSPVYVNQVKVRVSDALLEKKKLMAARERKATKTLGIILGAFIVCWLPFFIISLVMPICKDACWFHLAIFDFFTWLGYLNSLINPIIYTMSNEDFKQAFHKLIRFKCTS
T4 sequence (P21918 whole entry, the tested form may be a part): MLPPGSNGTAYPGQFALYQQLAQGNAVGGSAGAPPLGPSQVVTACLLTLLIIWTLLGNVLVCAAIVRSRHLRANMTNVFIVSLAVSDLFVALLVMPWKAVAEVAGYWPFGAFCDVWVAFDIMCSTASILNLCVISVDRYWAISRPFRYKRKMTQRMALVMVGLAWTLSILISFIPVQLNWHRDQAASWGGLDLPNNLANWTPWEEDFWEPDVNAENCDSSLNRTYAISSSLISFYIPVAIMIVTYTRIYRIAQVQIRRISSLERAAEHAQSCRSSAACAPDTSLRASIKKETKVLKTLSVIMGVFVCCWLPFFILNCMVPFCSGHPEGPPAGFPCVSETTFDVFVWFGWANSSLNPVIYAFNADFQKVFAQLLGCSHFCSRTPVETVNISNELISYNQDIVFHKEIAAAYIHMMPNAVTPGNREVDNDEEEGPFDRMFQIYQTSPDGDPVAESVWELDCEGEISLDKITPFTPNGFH
T5 sequence (P47898 whole entry, the tested form may be a part): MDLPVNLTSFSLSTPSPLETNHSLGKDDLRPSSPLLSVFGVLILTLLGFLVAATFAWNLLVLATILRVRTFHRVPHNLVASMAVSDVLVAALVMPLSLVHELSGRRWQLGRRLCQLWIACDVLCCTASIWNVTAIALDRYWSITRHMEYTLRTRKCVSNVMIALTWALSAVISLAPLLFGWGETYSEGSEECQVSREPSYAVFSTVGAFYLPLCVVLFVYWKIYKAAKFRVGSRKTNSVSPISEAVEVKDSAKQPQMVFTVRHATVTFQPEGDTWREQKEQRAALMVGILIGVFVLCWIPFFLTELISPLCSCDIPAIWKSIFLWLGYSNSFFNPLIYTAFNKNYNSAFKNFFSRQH
T9 sequence (P14416 whole entry, the tested form may be a part): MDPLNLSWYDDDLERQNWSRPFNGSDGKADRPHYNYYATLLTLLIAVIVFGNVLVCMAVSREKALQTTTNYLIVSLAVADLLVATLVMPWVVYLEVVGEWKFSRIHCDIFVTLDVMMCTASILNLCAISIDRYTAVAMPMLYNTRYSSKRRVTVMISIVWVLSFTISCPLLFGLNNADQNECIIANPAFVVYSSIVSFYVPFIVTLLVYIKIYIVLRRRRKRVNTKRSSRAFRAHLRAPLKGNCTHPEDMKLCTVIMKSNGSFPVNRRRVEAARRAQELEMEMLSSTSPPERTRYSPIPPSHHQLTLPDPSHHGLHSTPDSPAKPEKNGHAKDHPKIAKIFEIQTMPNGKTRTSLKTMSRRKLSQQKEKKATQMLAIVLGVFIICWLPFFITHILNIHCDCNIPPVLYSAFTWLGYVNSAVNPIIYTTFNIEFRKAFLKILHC
T2 sequence (Q13639 1-378 isoform Q13639-5): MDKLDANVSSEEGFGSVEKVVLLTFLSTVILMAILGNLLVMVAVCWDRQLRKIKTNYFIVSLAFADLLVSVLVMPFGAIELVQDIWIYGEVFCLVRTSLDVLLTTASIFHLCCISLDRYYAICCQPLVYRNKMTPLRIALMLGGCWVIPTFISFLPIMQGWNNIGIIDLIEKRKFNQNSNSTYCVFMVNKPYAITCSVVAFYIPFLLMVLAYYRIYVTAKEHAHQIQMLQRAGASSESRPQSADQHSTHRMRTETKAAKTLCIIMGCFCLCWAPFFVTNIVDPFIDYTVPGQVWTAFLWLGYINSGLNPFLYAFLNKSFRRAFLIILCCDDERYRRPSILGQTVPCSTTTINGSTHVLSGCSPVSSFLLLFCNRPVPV
T3 sequence (P14416 1-414 isoform P14416-2): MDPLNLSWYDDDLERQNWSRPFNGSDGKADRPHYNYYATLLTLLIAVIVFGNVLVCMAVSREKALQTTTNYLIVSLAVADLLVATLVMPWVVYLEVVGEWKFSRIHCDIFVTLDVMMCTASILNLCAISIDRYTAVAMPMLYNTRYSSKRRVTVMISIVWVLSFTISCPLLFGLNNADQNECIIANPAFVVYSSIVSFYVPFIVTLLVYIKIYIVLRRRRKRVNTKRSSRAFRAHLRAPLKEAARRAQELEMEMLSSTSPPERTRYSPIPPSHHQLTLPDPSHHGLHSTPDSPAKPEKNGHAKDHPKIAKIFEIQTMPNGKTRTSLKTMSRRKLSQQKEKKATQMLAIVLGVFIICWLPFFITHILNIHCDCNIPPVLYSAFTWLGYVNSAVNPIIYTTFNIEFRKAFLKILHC
T6 sequence (P14416 1-414 isoform P14416-2): as above
T8 sequence (P28335 33-458): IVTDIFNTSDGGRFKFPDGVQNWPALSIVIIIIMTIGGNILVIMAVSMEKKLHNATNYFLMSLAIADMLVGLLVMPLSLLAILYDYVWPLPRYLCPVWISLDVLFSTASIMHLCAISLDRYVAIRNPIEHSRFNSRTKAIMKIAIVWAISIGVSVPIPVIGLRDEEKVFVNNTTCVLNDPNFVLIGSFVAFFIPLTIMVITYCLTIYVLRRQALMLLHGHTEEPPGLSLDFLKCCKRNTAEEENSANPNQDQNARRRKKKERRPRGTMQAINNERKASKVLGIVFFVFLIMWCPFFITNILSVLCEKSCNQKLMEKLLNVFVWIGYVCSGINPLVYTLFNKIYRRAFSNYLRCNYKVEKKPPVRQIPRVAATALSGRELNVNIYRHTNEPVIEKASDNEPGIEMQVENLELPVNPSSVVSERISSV
T7 sequence (P08908 whole entry, the tested form may be a part): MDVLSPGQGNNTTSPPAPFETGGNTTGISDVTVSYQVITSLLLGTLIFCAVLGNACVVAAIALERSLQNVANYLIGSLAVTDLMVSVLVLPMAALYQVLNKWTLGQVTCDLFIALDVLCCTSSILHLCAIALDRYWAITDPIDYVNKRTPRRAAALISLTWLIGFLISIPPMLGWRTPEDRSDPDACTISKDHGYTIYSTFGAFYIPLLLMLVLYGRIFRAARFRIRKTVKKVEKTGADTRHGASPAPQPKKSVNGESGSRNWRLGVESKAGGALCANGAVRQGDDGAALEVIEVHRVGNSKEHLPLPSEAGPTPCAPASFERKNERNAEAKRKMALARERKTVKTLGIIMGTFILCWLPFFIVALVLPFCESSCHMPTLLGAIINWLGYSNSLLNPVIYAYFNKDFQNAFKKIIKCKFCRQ

CN1C[C@H](C(=O)N[C@]2(C)O[C@@]3(O)[C@@H]4CCCN4C(=O)[C@H](Cc4ccccc4)N3C2=O)C[C@@H]2c3cccc4[nH]cc(c34)C[C@H]21 [DHE, Dihydroergotamine mesylate]
receptor radioligand binding (active binding) [1]: X (An X denotes active binding)
dissociation half-life [2]: 1.28 h
EC50 [3]: 6000 nM
DHE activity (screening) ([3]; 10 μM, >30% activity = agonist): Agonist
dissociation half-life [4]: 1.38 h
IC50 [5]: 230 nM
IC50 [6]: 0.47 nM
receptor radioligand binding (active binding) [7]: X (An X denotes active binding)
receptor radioligand binding (active binding) [8]: X (An X denotes active binding)
DHE binding/activity at CXCR7 [9]: Additional notes • Radioligand binding assays reported here did not show DHE binding at concentrations <1.0 μM; therefore, agonist activity of DHE on CXCR7 is unlikely in clinically relevant conditions
receptor radioligand binding (active binding) [10]: X (An X denotes active binding)
receptor radioligand binding (active binding) [11]: X (An X denotes active binding)
IC50 [12]: 370 nM
receptor radioligand binding (active binding) [13]: X (An X denotes active binding)
receptor radioligand binding (active binding) [14]: X (An X denotes active binding)
DHE activity (screening) [15]: Agonist
DHE activity (screening) [16]: Agonist
DHE activity (screening) [17]: Agonist
DHE activity (screening) [18]: Agonist
DHE activity (screening) [19]: Agonist
DHE activity (screening) [20]: Agonist
DHE activity (screening) [21]: Agonist
IC50 [22]: > 300 nM
binding to the 5-HT3 receptor ([22]; at concentrations up to 300 nM): did not bind; also recorded: did not exhibit binding
IC50 [23]: 0.58 nM
receptor radioligand binding (active binding) [24]: X (An X denotes active binding)
receptor radioligand binding (active binding) [25]: X (An X denotes active binding)
